According to patent publication US20260137700A1, “PHARMACEUTICAL COMBINATION OF PRMT5 INHIBITOR AND DNA DAMAGE-INDUCING SUBSTANCE” (SK Biopharmaceuticals Co., Ltd., priority 2022, published 2026):

What was measured:
[1] = system: human pancreatic cancer cells CAPAN-1; test: Subcutaneous xenograft mouse model of CAPAN-1 pancreatic cancer cells, tumor volume; format: in vivo; conditions: Day 31, solvent group 1,017 mm^3
Protocol: For in vivo efficacy studies in a subcutaneous xenograft mouse model of human pancreatic cancer cells CAPAN-1, co-administration of compound-87 as a PRMT5 inhibitor according to one example of the present invention and Gemcitabine as an anti-metabolite of a chemotherapeutic agent, was performed.
To produce a pancreatic cancer xenograft model, 5 million CAPAN-1 cells were injected subcutaneously into the right flank of female nude mice, and tumor growth was monitored.
To evaluate the anticancer effect, when the tumor volume reached approximately 185 mm^3 on average, the mice were divided into six groups. The all group included the solvent-treated group (vehicle group), the compound-87 monotherapy group (25 mg/kg or 50 mg/kg), the gemcitabine monotherapy group (50 mg/kg), combination therapy group of the compound-87 (25 mg/kg or 50 mg/kg), and the gemcitabine. The vehicle A group or the compound-87 treatment group was administered orally on a 3-day administration/4-day non-administration schedule, and the vehicle B group or the gemcitabine treatment group was administered intraperitoneally twice a week.

[2] = system: human pancreatic cancer cells Mia PaCa-2; test: Subcutaneous xenograft mouse model of Mia PaCa-2 pancreatic cancer cells, tumor growth inhibition; format: in vivo; conditions: day 24
Protocol: For in vivo efficacy study in a subcutaneous xenograft mouse model of human pancreatic cancer cells Mia PaCa-2, co-administration of compound-87 as a PRMT5 inhibitor according to an example of the present invention and Gemcitabine as an anti-metabolite of a chemotherapeutic agent, was performed. To produce a pancreatic cancer xenograft model, 5 million Mia PaCa-2 cells were injected subcutaneously into the right flank of female nude mice, and tumor growth was monitored.
To evaluate the anticancer effect, mice were divided into six groups when the tumor volume reached approximately 150 mm^3 on average. […] The solvent-treated group (vehicle group) or the compound-87 treatment group was administered orally on a 3-day administration/4-day non-administration schedule, and gemcitabine was administered intraperitoneally twice a week for 24 days (Day 0-Day 23). All mice were euthanized on Day 24, 24 hours after the last administration.

[3] = system: CTG-1932, a human non-small cell lung cancer patient-derived cell line; test: Subcutaneous xenograft mouse model of patient-derived CTG-1932 non-small cell lung cancer, tumor growth inhibition; format: in vivo; conditions: day 9
Protocol: For in vivo efficacy studies in a subcutaneous xenograft mouse model of CTG-1932, a human non-small cell lung cancer patient-derived cell line, combination therapy of compound-87 as a PRMT5 inhibitor according to one example of the present invention and with paclitaxel as a chemotherapy agent, was performed at Champions Oncology (USA).
To produce a non-small cell lung cancer xenograft model, CTG-1932 tumor stock was grown and harvested from primary mice and then transplanted subcutaneously into the left flank of immunocompromised female mice as a 5×5×5 mm^3 tumor fragment. When the tumor volume reached approximately 150-300 mm^3, the mice were separated into four groups of 10 each. All group consisted of a solvent-treated group (vehicle group), a compound-87 monotherapy group (50 mg/kg, oral administration, 3 days on/4 days off), a paclitaxel monotherapy group (20 mg/kg, intraperitoneal administration once a week), and combination treatment group of compound-87 (50 mg/kg, oral administration, 3 days on/4 days off) and paclitaxel (20 mg/kg, intraperitoneal administration once a week). tumor volume and body weight were measured twice a week.

[4] = system: DNA damage repair genes; test: Gene expression analysis in patient-derived xenograft mice (CTG-2534); format: in vivo, mouse; conditions: compound-87 oral, 3-day on/4-day off; tumors taken when solvent group reached 955 mm^3
Description: In order to analyze changes in gene expression by PRMT5 inhibitor treatment according to one example of the present invention, patient-derived cells CTG-2534 were xenografted into mice subcutaneously, and then the mice were divided into groups, when the tumor volume reached 80 to 300 mm^3. The solvent-treated group (vehicle group) or the compound-87 treatment group was orally administered on a 3-day on/4-day off schedule. When the tumor volume of the solvent-treated group reached 955 mm^3, the tumors were separated and performed for gene expression analysis.
FIG. 30 is a heat map showing the change in expression of DNA damage repair genes using Z-score values for Log2FPKM, after compound-87 treatment were performed in patient-derived lung cancer […] cell xenograft mice. In FIG. 30, the solvent-treated group is shown in red (positive value), and the compound-87-treated group is shown in blue (negative value).

CN1CCC(Oc2ccc3c(c2)OCCN(C[C@H](O)CN2CCc4ccccc4C2)C3=O)CC1 [Compound-87, 4-[(2R)-3-(3,4-dihydro-1H-isoquinolin-2-yl)-2-hydroxy-propyl]-8-[(1-methyl-4-piperidyl)oxy]-2,3-dihydro-1,4-benzoxazepin-5-one]
tumor volume ([1]; Compound-87 25 mg/kg oral (3 days on/4 off) in combination with gemcitabine 50 mg/kg i.p. twice a week): 379 mm^3 | tumor volume ([1]; Compound-87 50 mg/kg oral (3 days on/4 off) in combination with gemcitabine 50 mg/kg i.p. twice a week): 235 mm^3 | tumor growth inhibition rate ([2]; compound-87 25 mg/kg combined with gemcitabine 60 mg/kg i.p. twice a week): 67.7% | tumor growth inhibition rate ([2]; compound-87 25 mg/kg monotherapy, oral, 3 days on/4 off): 42.6% | tumor growth inhibition rate ([2]; compound-87 50 mg/kg combined with gemcitabine 60 mg/kg i.p. twice a week): 77.0% | tumor growth inhibition rate ([2]; compound-87 50 mg/kg monotherapy, oral, 3 days on/4 off): 56.0% | tumor growth inhibition compared to the solvent-treated group ([3]; compound-87 50 mg/kg oral single agent, 3 days on/4 off, not significant): 39% | tumor growth inhibition compared to the solvent-treated group ([3]; compound-87 50 mg/kg oral together with paclitaxel 20 mg/kg i.p. once a week): 89% | change in expression of DNA damage repair genes (Z-score of Log2FPKM, heat map FIG. 30) [4]: reduced expression of DNA damage repair genes
